Results: US20090312374A1, “DERIVATIVES OF 4,6-DISUBSTITUTED 1,2,4-TRIAZOLO- 1,3,4-THIADIAZOLE, A PROCESS AND USES THEREOF” (UNIVERSITY OF MYSORE, priority 2005, published 2009)

How the values were obtained:
[1] = system: advanced squamous-cell cervical cancer; settings: 125 mg/m2 weekly, cited from earlier work
H2AX = test: Western blot of isolated histones probed with H2AX antibody; assay type: cell-based; settings: HeLa cells, 24 h compound treatment
Protocol: HeLa cells (3×10^6 cells per 90-mm dish) were seeded overnight, and histones were extracted from 24 h of compound treated cells as reported previously. In brief, cells were harvested, washed in ice-cold buffer A (150 mM KCl, 20 mM HEPES, pH 7.9, 0.1 mM EDTA, and 2.5 mM MgCl2) and lysed in buffer A containing 250 mM sucrose and 1% (v/v) Triton X-100. Nuclei were recovered by centrifugation and washed, and proteins were extracted for 1 h using 0.25 M HCl. The proteins were precipitated with 25% (w/v) trichloroacetic acid and sequentially washed with ice-cold acidified acetone (20 μl of 12 N HCl in 100 ml of acetone) and acetone, air-dried, and dissolved in the sample buffer (5.8 M urea, 0.9 M glacial acetic acid, 16% glycerol, and 4.8% 2-mercaptoethanol). The histones (equal amounts in all lanes) were resolved on SDS PAGE gel.
The western blot analysis was done using the isolated histones and probed with H2AX antibody and the results say that 2 of the compounds (NC-2 and NC-5) get hyperphosphorylated.

[2] = system: cervical cancer cell line; test: Immunofluorescence (Hoechst 33258) apoptosis, TN and NC series, cervical cancer; assay type: cell-based; settings: versus breast cancer and normal cells; FIG. 1
Source text: (§1) Subsequently, the cells were washed with PBS.

Breast cancer = test: Immunofluorescence (Hoechst 33258) apoptosis, TN and NC series, breast cancer; assay type: cell-based; settings: FIG. 1
Source text: as §1

[3] = twenty-one patients, advanced squamous-cell cervical cancer

In the case of `Nc1nncs1`, the “activity in previously treated cervical carcinoma patients” value [1] is given as “minimal activity”, the “patients with increasing disease” value [1, 3] is given as 14 and the “patients with partial response” value [1, 3] is given as “One”. The “patients with stable disease” value [1, 3] was “six”.
In the case of `CCc1nnc2sc(-c3cccc(Cl)c3Cl)nn12` [NC-2, 6-(2,3-dichlorophenyl)-3-ethyl-[1,2,4]triazolo[3,4-b][1,3,4]thiadiazole], the “H2AX phosphorylation (western blot of isolated histones)” value (H2AX) is reported as “hyperphosphorylated” and the “selected as specific to cervical cancer cell line i.e. squamous cancer cell lines” value (from here on “selected as specific”) [2] is reported as “selected”.
With `Clc1ccc(-c2nnc3sc(-c4cccc(Cl)c4Cl)nn23)cc1` [NC-5, 6-(2,3-dichlorophenyl)-3-(4-chlorophenyl)-[1,2,4]triazolo[3,4-b][1,3,4]thiadiazole] the “H2AX phosphorylation (western blot of isolated histones)” value (H2AX) was “hyperphosphorylated” and the “selected as specific” value [2] was “selected”.
With `CCc1nnc2sc(C3CCc4cc(F)ccc4O3)nn12` (stereo not drawn) [TN-2, 6-(6-fluorochroman-2-yl)-3-ethyl-[1,2,4]triazolo[3,4-b][1,3,4]thiadiazole] the extent of apoptosis (Breast cancer) was “little apoptosis”.
For `Fc1ccc2c(c1)CCC(c1nn3c(-c4ccccc4)nnc3s1)O2` (stereo not drawn) [TN-3, 6-(6-fluorochroman-2-yl)-3-phenyl-[1,2,4]triazolo[3,4-b][1,3,4]thiadiazole], the “selected as specific” value [2] was “selected”.
In the case of `Cc1ccc(-c2nnc3sc(C4CCc5cc(F)ccc5O4)nn23)cc1` (stereo not drawn) [TN-4, 6-(6-fluorochroman-2-yl)-3-p-tolyl-[1,2,4]triazolo[3,4-b][1,3,4]thiadiazole], the “selected as specific” value [2] is reported as “selected”.
For `Fc1ccc2c(c1)CCC(c1nn3c(-c4ccc(Cl)cc4)nnc3s1)O2` (stereo not drawn) [TN-5, 3-(4-chlorophenyl)-6-(6-fluorochroman-2-yl)-[1,2,4]triazolo[3,4-b][1,3,4]thiadiazole], the extent of apoptosis (Breast cancer) was “little apoptosis”.
